Source: ChEMBL document CHEMBL4339206, “Specific stabilization of DNA G-quadruplex structures with a chemically modified complementary probe” (Bioorg Med Chem, 2019)
The source made the active and inactive calls. No cut-off for these calls is given here.

Key:
Type in all cases: nucleic-acid assay
Quadruplex DNA [1] = test: Binding affinity to HT G-quadruplex DNA (unknown origin) assessed as stabilization of parallel G-quadruplex structure at 10 to 70 uM by CD spectroscopic method
Quadruplex DNA [2] = test: Binding affinity to HT4-2 template G-quadruplex DNA (unknown origin) assessed as primer extension stopped right before TTAGGG-repeating at 20 to 100 uM using FAM-lablled primer P18 and dNTPs measured after 30 mins in presence of marker 2 by phosphorimaging based taq polymerase stop assay
Quadruplex DNA [3] = test: Binding affinity to HT4-2 template G-quadruplex DNA (unknown origin) assessed as inhibition of polymerase progression at 2nt separation site at 20 to 100 uM using FAM-lablled primer P18 and dNTPs measured after 30 mins by phosphorimaging based taq polymerase stop assay
Quadruplex DNA [4] = test: Binding affinity to HT G-quadruplex DNA (unknown origin) measured after 5 mins by UV-visible absorption titration method
Quadruplex DNA [5] = test: Binding affinity to HT4-2-Mut2 template G-quadruplex DNA (unknown origin) assessed as inhibition of polymerase progression at 2nt separation site at 20 to 100 uM using FAM-lablled primer P18 and dNTPs measured after 30 mins by phosphorimaging based taq polymerase stop assay
Quadruplex DNA [6] = test: Binding affinity to HT4-2-Mut3 template G-quadruplex DNA (unknown origin) assessed as inhibition of polymerase progression at 2nt separation site at 20 to 100 uM using FAM-lablled primer P18 and dNTPs measured after 30 mins by phosphorimaging based taq polymerase stop assay
Quadruplex DNA [7] = test: Binding affinity to HT4-2-Mut1 template G-quadruplex DNA (unknown origin) assessed as inhibition of polymerase progression at 2nt separation site at 20 to 100 uM using FAM-lablled primer P18 and dNTPs measured after 30 mins by phosphorimaging based taq polymerase stop assay
Quadruplex DNA [8] = test: Binding affinity to HT4-2 template G-quadruplex DNA (unknown origin) at 55 degC

- Activity (Quadruplex DNA [1]): Active
- Activity (Quadruplex DNA [2]): Active
- inhibition (Quadruplex DNA [3]): Active
- K (Quadruplex DNA [4]): 2.1 ×10⁵ /M
- inhibition (Quadruplex DNA [5]): inactive
- inhibition (Quadruplex DNA [6]): inactive
- inhibition (Quadruplex DNA [7]): inactive
- Activity (Quadruplex DNA [8]): inactive
Compound: [N-]=[N+]=NCCCC[N+]1(CCOc2ccc(/N=N/c3ccc(OCC[N+]4(CCCCN=[N+]=[N-])CCCCC4)cc3)cc2)CCCCC1
